In US8455497B2, “Inhibitors of aspartyl protease” (Vertex Pharmaceuticals Incorporated, priority 1999, dated 2013) one finds IC50 data, which are given here for 34 compounds.

Each structure is given as a SMILES string.

In general, IC50 refers to the midpoint of a concentration-inhibition curve.

One assay has as its system HIV-1 (strain IIIB). Briefly: Antiviral activity assay in MT4 cells (propidium iodide based). It is filed as cell-based. The note with it: Human immunodeficiency virus 1, IIIB; wild type HIV-1 virus, MT4 cells; read-out: Wildtype virus - IC50. The procedure:
Antiviral Activity Assay in MT4 Cells
Aliquots of the test compounds were serially diluted in medium (RPMI 1640, 10% fetal calf serum (FCS), and gentamycin) in 96-well plates (Costar 3598) using a Cetus Pro/Pette. Exponentially growing MT4 cells were harvested and centrifuged at 1000 rpm for 10 min in a Jouan centrifuge (model CR 4 12). Cell pellets were resuspended in fresh medium (RPMI 1640, 20% FCS, 20% IL-2, and gentamycin) to a density of 5×10^5 cells/ml. Cell aliquots were infected by the addition of HIV-1 (strain IIIB) diluted to give a viral multiplicity of infection of 100×TCID50. A similar cell aliquot was diluted with medium to provide a mock-infected control. Cell infection was allowed to proceed for 1 hr at 37° in a tissue culture incubator with humidified 5% CO2 atmosphere. After the 1 hr incubation the virus/cell suspensions were diluted 6-fold with fresh medium, and 125 μl of the cell suspension was added to each well of the plate containing pre-diluted compound. Plates were then placed in a tissue culture incubator with humidified 5% CO2 for 5 days. At the end of the incubation period, 27 μl of 5% Nonidet-40 was added to each well of the incubation plate. After thorough mixing with a Costar multitip pipetter, 60 μl of the mixture was transferred to filter-bottomed 96-well plates. The plates were analyzed in an automated assay instrument (Screen Machine, Idexx Laboratories). The assay makes use of a propidium iodide dye to estimate the DNA content of each well.
The anti-viral potency in MT-4 cells of the compounds set forth in Tables 1 and 2 was determined using the above technique.
Turning to `CC(C)CN(C[C@@H](O)[C@H](Cc1ccc(OCc2ccccc2)cc1)NC(=O)O[C@H]1CO[C@H]2OCC[C@H]21)S(=O)(=O)c1ccc2c(c1)OC(F)(F)O2` [Compound 340, (3R,3aS,6aR)-hexahydrofuro[2,3-b]furan-3-yl (1S,2R)-1-[4-(benzyloxy)benzyl]-3-[[(2,2-difluoro-1,3-benzodioxol-5-yl)sulfonyl](isobutyl)amino]-2-hydroxypropylcarbamate], the half-maximal inhibitory concentration (IC50) was in the range of 10 to 100 nM. The same measure, in the same setting: as for `CNC(=O)OCCCC(C)(C)CN(C[C@@H](O)[C@H](Cc1ccc(OCc2ccccc2)cc1)NC(=O)OC1COCOC1)S(=O)(=O)c1ccc2c(c1)OCO2` [Compound 363, 1,3-Dioxan-5-yl N-((1S,2R)-1-[(4-benzyloxy)benzyl-3-[2,2-dimethyl-5-(N′-methylcarbamoyloxy)-pentyl][(3,4-methylenedioxyphenyl)sulfonyl]amino-2-hydroxypropyl) carbamate], the figure is 10 to 100 nM. Same read-out and setting: as for `Cc1cc(S(=O)(=O)N(CC(C)C)C[C@@H](O)[C@H](Cc2ccc(OCc3cccc(C#N)c3)cc2)NC(=O)O[C@H]2CO[C@H]3OCC[C@H]32)ccc1O` [Compound 346], the figure is 10 to 100 nM.

Take `CC(C)(CCCC#N)CN(C[C@@H](O)[C@H](Cc1ccc(OCc2ccccc2)cc1)NC(=O)O[C@H]1CCOC1)S(=O)(=O)c1ccc2c(c1)OCO2` [Compound 307, (3S)-Tetrahydro-3-furanyl (1S,2R)-3-[(1,3-benzodioxol-5-ylsulfonyl)(5-cyano-2,2-dimethylpentyl)amino]-1-[4-(benzyloxy)benzyl]-2-hydroxypropylcarbamate]: the IC50 was 10 to 100 nM. Turning to `CC(C)CN(C[C@@H](O)[C@H](Cc1ccc(OCCCN)cc1)NC(=O)OC1CO[C@H]2OCC[C@@H]12)S(=O)(=O)c1ccc2c(c1)OCO2` (stereo in doubt) [Compound 222, (3R,3aS,6aR)-hexahydrofuro[2,3-b]furan-3-yl (1S,2R)-1-[4-(3-aminopropoxy)benzyl]-3-[(1,3-benzodioxol-5-ylsulfonyl)(isobutyl)amino]-2-hydroxypropylcarbamate], the 50% inhibitory concentration (IC50) is 10 to 100 nM. On the same count and under the same terms, to `CCC(CC)ON(C[C@@H](O)[C@H](Cc1ccc(OCc2ccccc2)cc1)NC(=O)OC1COCOC1)S(=O)(=O)c1ccc2c(c1)OCO2` [Compound 330, 1,3-Dioxan-5-yl (1S,2R)-3-[(1,3-benzodioxol-5-ylsulfonyl) (1-ethylpropoxy)amino]-1-[4-(benzyloxy)benzyl]-2-hydroxypropylcarbamate] belongs 10 to 100 nM.

The same assay, now with this note: Human immunodeficiency virus 1, MT4, 120 h; MT-4 cells, HIV-1 strain IIIB, 5 days; read-out: IC50 (Antiviral Activity of Compounds of the Invention).
As for `CC(C)CN(C[C@@H](O)[C@H](Cc1ccc(OCCCN2CCOCC2)cc1)NC(=O)OC(C)(C)C)S(=O)(=O)c1ccc2c(c1)OCO2` [Compound 20, Boc Methylenedioxybenzenesulfonamide Propylmorpholine Tethered Product], the concentration for half-maximal inhibition (IC50) was in the range of 10 to 100 nM. Still for that read-out and setting: to `CC(C)CN(C[C@@H](O)[C@H](Cc1ccc(OCCN2CCOCC2)cc1)NC(=O)O[C@H]1CO[C@H]2OCC[C@H]21)S(=O)(=O)c1ccc2c(c1)OCO2` [Compound 48, Bis-THF Methylenedioxybenzenesulfonamide Ethylmorpholine Tethered Product] belongs 1 to 10 nM; to `COCCN(CCOC)CCOc1ccc(C[C@H](NC(=O)OC(C)(C)C)[C@H](O)CN(CC(C)C)S(=O)(=O)c2ccc3c(c2)OCO3)cc1` [Compound 18, Boc Methylenedioxybenzenesulfonamide Bis-Methoxyethylamine Tethered Product], 10 to 100 nM. For the compound `CC(C)CN(C[C@@H](O)[C@H](Cc1ccc(OCC(=O)N2CCOCC2)cc1)NC(=O)OC(C)(C)C)S(=O)(=O)c1ccc2c(c1)OCO2` [Compound 21, Boc methylenedioxybenzenesulfonamide Acetylmorpholine Tethered Product], the IC50 was 10 to 100 nM. On the same count and under the same terms, to `CC(C)CN(C[C@@H](O)[C@H](Cc1ccc(OCCCN2CCOCC2)cc1)NC(=O)O[C@H]1CO[C@H]2OCC[C@H]21)S(=O)(=O)c1ccc2c(c1)OCO2` [Compound 49, Bis-THF Methylenedioxybenzenesulfonamide Propylmorpholine Tethered Product] belongs 1 to 10 nM.

The same assay, now with this note: MT-4 cells, HIV-1 strain IIIB, 5 days; read-out: IC50 (Antiviral Activity of Compounds of the Invention).
With `COCCN(CCOC)CCOc1ccc(CC(NC(=O)OC2CCOC2)C(O)CN(CC(C)C)S(=O)(=O)c2cccc(N)c2)cc1` (stereo not shown) [Compound 22, bis-THF m-aminophenylsulfonamide benzyl ether], the half-maximal inhibitory concentration (IC50) lay in the range of 10 to 100 nM. Still for that read-out and setting: as for `CC(C)CN(CC(O)C(Cc1ccc(OCCN2CCOCC2)cc1)NC(=O)OC1CCOC1)S(=O)(=O)c1cccc(N)c1` (stereo not shown) [Compound 23], the figure is 10 to 100 nM. In the case of `CC(C)CN(CC(O)C(Cc1ccc(OCc2ccccc2)cc1)NC(=O)OC1COC2OCCC12)S(=O)(=O)c1ccc2c(c1)OCO2` (stereo not shown) [Compound 46, Bis-THF Methylenedioxybenzenesulfonamide Benzyl Ether], the concentration for half-maximal inhibition (IC50) is less than 1 nM. As for `Cc1cc(COc2ccc(CC(NC(=O)OC3COC4OCCC34)C(O)CN(CC(C)C)S(=O)(=O)c3ccc(N)cc3)cc2)no1` (stereo not shown) [Compound 33], the 50% inhibitory concentration (IC50) was 10 to 100 nM.

Consider `CC(C)CN(CC(O)C(Cc1ccc(OCc2ccccn2)cc1)NC(=O)OC1COC2OCCC12)S(=O)(=O)c1ccc(N)cc1` (stereo not shown) [Compound 31], for which the half-inhibitory concentration (IC50) fell in the range of 1 to 10 nM. On to `CC(C)CN(CC(O)C(Cc1ccc(OCCCN2CCOCC2)cc1)NC(=O)OC(C)(C)C)S(=O)(=O)c1cccc(N)c1` (stereo not shown) [Compound 16], for which the half-maximal inhibitory concentration (IC50) was greater than 100 nM. Still for that read-out and setting: as for `CC(C)CN(CC(O)C(Cc1ccc(OCCN2CCOCC2)cc1)NC(=O)OC(C)(C)C)S(=O)(=O)c1ccc(N)cc1` (stereo not shown) [Compound 10], the figure is greater than 100 nM; as for `COCCN(CCOC)CCOc1ccc(CC(NC(=O)OC2COC3OCCC23)C(O)CN(CC(C)(C)CCC#N)S(=O)(=O)c2ccc(N)cc2)cc1` (stereo not shown) [Compound 74], greater than 100 nM; as for `CC(C)CN(CC(O)C(Cc1ccc(OCCN2CCOCC2)cc1)NC(=O)OC(C)(C)C)S(=O)(=O)c1cccc(N)c1` (stereo not shown) [Compound 15], greater than 100 nM. Consider `CC(C)(CCC#N)CN(CC(O)C(Cc1ccc(OCc2ccccc2)cc1)NC(=O)OC1COC2OCCC12)S(=O)(=O)c1ccc(N)cc1` (stereo not shown) [Compound 71], for which the concentration for half-maximal inhibition (IC50) was in the range of 1 to 10 nM. On the same count and under the same terms, to `CC(C)CN(CC(O)C(Cc1ccc(OCc2ccccc2)cc1)NC(=O)OC1COC2OCCC12)S(=O)(=O)c1ccc(N)cc1` (stereo not shown) [Compound 26] belongs less than 1 nM.

On to `COCCN(CCOC)CCOc1ccc(CC(NC(=O)OC2COC3OCCC23)C(O)CN(CC(C)C)S(=O)(=O)c2cccc(N)c2)cc1` (stereo not shown) [Compound 34], for which the 50% inhibitory concentration (IC50) is greater than 100 nM.

As to `COCCN(CCOC)CCOc1ccc(CC(NC(=O)OC(C)(C)C)C(O)CN(CC(C)(C)CCC#N)S(=O)(=O)c2ccc3c(c2)OCO3)cc1` (stereo not shown) [Compound 68], the IC50 was greater than 100 nM. Same read-out and setting: as for `Cc1cc(S(=O)(=O)N(CC(C)C)CC(O)C(Cc2ccc(OCc3ccccc3)cc2)NC(=O)OC2COC3OCCC23)ccc1O` (stereo not shown) [Compound 38], the figure is less than 1 nM.

The assay is the same for the next values; noted with them: wild type HIV-1 virus, MT4 cells; read-out: Wildtype virus - IC50.
As for `CC(C)CN(C[C@@H](O)[C@H](Cc1ccc(OCCCNC(=O)OC(C)C)cc1)NC(=O)O[C@H]1CO[C@H]2OCC[C@H]21)S(=O)(=O)c1ccc2c(c1)OCO2` [Compound 249], the IC50 lay within 1 to 10 nM. With `CC(C)CN(C[C@@H](O)[C@H](Cc1ccc(OCCCC(F)(F)F)cc1)NC(=O)O[C@H]1CO[C@H]2OCC[C@H]21)S(=O)(=O)c1ccc2c(c1)OCO2` [Compound 216], the IC50 was 1 to 10 nM. Same read-out and setting: to `CC(C)CN(C[C@@H](O)[C@H](Cc1ccc(OCCCc2cccnc2)cc1)NC(=O)O[C@H]1CO[C@H]2OCC[C@H]21)S(=O)(=O)c1ccc2c(c1)OCO2` [Compound 214] belongs 1 to 10 nM. On the same count and under the same terms, as for `CC(C)CN(C[C@@H](O)[C@H](Cc1ccc(OCCNC(=O)c2ccco2)cc1)NC(=O)O[C@H]1CO[C@H]2OCC[C@H]21)S(=O)(=O)c1ccc2c(c1)OCO2` [Compound 234], the figure is 1 to 10 nM; as for `CC(C)CN(C[C@@H](O)[C@H](Cc1ccc(OCCc2ccncc2)cc1)NC(=O)O[C@H]1CO[C@H]2OCC[C@H]21)S(=O)(=O)c1ccc2c(c1)OCO2` [Compound 211], 1 to 10 nM; as for `CC(C)CN(C[C@@H](O)[C@H](Cc1ccc(OCCCCNC(=O)OC(C)C)cc1)NC(=O)O[C@H]1CO[C@H]2OCC[C@H]21)S(=O)(=O)c1ccc2c(c1)OCO2` [Compound 250], 1 to 10 nM. Still for that read-out and setting: to `CC(C)CN(C[C@@H](O)[C@H](Cc1ccc(OCc2nccn2Cc2ccccc2)cc1)NC(=O)O[C@H]1CO[C@H]2OCC[C@H]21)S(=O)(=O)c1ccc2c(c1)OCO2` [Compound 394] belongs 1 to 10 nM. On to `CC(C)CN(C[C@@H](O)[C@H](Cc1ccc(OCc2ccc([N+](=O)[O-])cc2)cc1)NC(=O)O[C@H]1CO[C@H]2OCC[C@H]21)S(=O)(=O)c1ccc2c(c1)OCO2` [Compound 383, (3R,3aS,6aR)-hexahydrofuro[2,3-b]furan-3-yl (1S,2R)-3-[(1,3-benzodioxol-5-ylsulfonyl)(isobutyl)amino]-2-hydroxy 1-{4-[(4-nitrobenzyl)oxy]benzyl}propylcarbamate], for which the IC50 lay in the range of 1 to 10 nM. For the compound `CCOC(=O)NCCCCOc1ccc(C[C@H](NC(=O)O[C@H]2CO[C@H]3OCC[C@H]32)[C@H](O)CN(CC(C)C)S(=O)(=O)c2ccc3c(c2)OCO3)cc1` [Compound 247], the concentration for half-maximal inhibition (IC50) fell in the range of 1 to 10 nM.
